In US11981658B2, “Substituted aminopyridine compounds as EGFR inhibitors” (YUHAN CORPORATION, priority 2021, dated 2024):
Read-outs that look alike come from different tables or passages of the source.

Columns and labels:
EGFR wildtype (WT) = EGFR wildtype (WT) (Homo sapiens, UniProt P00533); assay: Biochemical EGFR kinase inhibition assay (Lance Ultra TR-FRET), wildtype
Outline: (§1)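 In this biochemical assay, phosphorylation after a one-hour room-temperature reaction was detected with europium-labelled anti-phosphopeptide antibody at 2 nM final concentration.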

EGFR Del19/C797S = EGFR Del19/C797S (Homo sapiens, UniProt P00533, C797S/DEL746-750); assay: Biochemical EGFR kinase inhibition assay (Lance Ultra TR-FRET), double mutant del19/C797S
EGFR Del19/C797S, sequence (P00533 with tags, fused parts or gaps DEL746-750/C797S): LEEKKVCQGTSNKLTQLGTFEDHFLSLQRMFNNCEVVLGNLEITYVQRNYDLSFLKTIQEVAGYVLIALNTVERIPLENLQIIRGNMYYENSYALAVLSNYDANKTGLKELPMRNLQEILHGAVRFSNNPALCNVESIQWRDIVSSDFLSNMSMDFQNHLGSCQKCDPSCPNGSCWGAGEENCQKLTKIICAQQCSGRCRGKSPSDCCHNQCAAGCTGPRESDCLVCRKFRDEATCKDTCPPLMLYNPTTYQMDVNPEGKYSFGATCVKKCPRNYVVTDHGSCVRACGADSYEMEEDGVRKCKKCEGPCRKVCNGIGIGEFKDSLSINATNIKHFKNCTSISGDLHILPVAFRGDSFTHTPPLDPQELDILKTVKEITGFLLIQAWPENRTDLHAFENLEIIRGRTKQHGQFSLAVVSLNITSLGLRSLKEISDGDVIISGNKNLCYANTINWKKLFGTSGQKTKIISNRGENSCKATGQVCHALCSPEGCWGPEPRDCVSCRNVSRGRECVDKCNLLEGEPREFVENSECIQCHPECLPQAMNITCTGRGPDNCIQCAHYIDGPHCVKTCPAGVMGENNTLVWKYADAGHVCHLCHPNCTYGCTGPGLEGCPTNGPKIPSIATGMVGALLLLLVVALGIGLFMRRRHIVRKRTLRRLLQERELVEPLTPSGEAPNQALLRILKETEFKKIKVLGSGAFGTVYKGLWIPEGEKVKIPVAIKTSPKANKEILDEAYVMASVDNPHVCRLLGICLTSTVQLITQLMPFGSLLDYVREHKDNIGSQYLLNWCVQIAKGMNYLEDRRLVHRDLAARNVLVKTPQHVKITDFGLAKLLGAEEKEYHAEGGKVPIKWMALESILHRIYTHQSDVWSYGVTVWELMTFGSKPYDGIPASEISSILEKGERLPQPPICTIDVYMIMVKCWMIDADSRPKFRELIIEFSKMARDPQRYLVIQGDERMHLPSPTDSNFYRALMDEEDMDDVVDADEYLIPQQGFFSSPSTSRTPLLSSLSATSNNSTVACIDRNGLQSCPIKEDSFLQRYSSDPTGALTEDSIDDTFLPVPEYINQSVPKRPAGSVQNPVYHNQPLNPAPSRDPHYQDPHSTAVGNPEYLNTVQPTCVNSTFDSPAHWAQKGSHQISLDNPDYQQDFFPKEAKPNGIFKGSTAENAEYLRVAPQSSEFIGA
Outline: as §1

EGFR Del19/T790M/C797S = EGFR Del19/T790M/C797S (Homo sapiens, UniProt P00533, C797S/DEL746-750/T790M); assay: Biochemical EGFR kinase inhibition assay (Lance Ultra TR-FRET), triple mutant del19/T790M/C797S
Outline: as §1

EGFR L858R/C797S = EGFR L858R/C797S (Homo sapiens, UniProt P00533, C797S/L858R); assay: Biochemical EGFR kinase inhibition assay (Lance Ultra TR-FRET), double mutant L858R/C797S
EGFR L858R/C797S, sequence (P00533 25-1210 C797S/L858R): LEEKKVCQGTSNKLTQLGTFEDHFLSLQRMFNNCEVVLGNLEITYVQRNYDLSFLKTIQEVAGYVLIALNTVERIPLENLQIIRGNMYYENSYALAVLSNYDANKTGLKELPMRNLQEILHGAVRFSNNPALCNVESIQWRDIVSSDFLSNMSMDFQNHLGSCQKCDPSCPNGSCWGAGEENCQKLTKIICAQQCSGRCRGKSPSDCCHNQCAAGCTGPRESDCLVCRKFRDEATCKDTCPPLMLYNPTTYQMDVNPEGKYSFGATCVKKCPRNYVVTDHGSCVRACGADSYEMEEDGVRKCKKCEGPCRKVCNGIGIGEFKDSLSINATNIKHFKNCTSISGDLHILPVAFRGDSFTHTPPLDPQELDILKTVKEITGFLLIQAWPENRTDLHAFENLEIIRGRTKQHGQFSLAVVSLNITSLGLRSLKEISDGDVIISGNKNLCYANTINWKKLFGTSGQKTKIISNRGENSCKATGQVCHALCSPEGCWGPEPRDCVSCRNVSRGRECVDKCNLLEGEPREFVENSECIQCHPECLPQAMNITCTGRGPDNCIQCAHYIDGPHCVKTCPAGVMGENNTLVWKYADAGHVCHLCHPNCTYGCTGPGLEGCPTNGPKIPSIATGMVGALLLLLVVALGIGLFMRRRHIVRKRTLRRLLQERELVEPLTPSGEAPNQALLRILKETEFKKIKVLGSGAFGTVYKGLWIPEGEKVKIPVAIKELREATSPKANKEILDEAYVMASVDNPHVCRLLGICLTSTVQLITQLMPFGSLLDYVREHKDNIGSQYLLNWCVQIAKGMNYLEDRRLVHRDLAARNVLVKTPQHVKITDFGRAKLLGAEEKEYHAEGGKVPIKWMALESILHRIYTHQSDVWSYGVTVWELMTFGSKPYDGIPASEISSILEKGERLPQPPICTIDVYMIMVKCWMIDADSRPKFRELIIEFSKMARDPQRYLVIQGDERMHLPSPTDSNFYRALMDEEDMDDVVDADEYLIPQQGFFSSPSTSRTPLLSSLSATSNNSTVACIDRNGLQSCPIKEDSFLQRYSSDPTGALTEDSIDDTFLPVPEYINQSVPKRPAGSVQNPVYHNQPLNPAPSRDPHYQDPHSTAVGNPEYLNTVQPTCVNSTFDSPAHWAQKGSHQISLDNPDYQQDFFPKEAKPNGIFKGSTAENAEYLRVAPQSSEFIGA
Outline: as §1

EGFR L858R/T790M/C797S = EGFR L858R/T790M/C797S (Homo sapiens, UniProt P00533, C797S/L858R/T790M); assay: Biochemical EGFR kinase inhibition assay (Lance Ultra TR-FRET), triple mutant L858R/T790M/C797S
EGFR L858R/T790M/C797S, sequence (P00533 25-1210 T790M/C797S/L858R): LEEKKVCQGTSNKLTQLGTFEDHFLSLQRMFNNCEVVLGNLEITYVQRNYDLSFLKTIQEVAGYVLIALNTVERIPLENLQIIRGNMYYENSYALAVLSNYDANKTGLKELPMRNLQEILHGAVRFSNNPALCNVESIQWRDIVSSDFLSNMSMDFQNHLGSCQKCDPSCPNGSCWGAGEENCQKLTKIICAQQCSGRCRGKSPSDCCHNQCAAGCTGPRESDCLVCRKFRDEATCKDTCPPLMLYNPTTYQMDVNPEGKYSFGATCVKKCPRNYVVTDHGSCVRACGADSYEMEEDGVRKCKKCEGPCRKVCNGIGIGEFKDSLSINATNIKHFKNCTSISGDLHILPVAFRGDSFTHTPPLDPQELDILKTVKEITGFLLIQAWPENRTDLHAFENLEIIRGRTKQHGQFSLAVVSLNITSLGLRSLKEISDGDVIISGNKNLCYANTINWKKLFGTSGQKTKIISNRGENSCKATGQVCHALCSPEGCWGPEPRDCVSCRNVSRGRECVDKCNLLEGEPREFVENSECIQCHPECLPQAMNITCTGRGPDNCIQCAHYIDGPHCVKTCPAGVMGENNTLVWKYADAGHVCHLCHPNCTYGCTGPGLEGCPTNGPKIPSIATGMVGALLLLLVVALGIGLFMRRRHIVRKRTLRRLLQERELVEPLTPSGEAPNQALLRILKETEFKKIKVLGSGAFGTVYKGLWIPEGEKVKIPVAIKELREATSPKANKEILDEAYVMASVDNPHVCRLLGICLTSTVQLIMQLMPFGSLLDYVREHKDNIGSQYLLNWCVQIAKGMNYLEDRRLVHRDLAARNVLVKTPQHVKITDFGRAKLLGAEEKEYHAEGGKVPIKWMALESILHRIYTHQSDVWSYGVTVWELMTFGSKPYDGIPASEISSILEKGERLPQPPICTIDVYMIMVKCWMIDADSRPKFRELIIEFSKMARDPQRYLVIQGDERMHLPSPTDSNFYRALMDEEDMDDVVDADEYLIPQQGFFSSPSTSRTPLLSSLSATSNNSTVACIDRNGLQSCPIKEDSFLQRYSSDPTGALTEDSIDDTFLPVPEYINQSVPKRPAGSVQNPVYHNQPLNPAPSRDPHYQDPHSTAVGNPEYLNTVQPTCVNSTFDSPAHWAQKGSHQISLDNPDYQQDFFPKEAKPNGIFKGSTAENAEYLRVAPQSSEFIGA
Outline: as §1

[1] = Km ATP, read-out: IC50 WT (nM), Km ATP
[2] = IC50 Del19/C797S (nM), 100 μM ATP
[3] = Km ATP, read-out: IC50 Del19/C797S (nM), Km ATP
[4] = IC50 Del19/T790M/C797S (nM), 100 μM ATP
[5] = Km ATP, read-out: IC50 Del19/T790M/C797S (nM), Km ATP
[6] = IC50 L858R/C797S (nM), 100 μM ATP
[7] = Km ATP, read-out: IC50 L858R/C797S (nM), Km ATP
[8] = IC50 L858R/T790M/C797S (nM), 100 μM ATP
[9] = Km ATP, read-out: IC50 L858R/T790M/C797S (nM), Km ATP
[10] = Km ATP, read-out: IC50 WT (nM) Km ATP
[11] = Km ATP, read-out: IC50 Del19/C797S (nM) Km ATP
[12] = Km ATP, read-out: IC50 Del19/T790M/C797S (nM) Km ATP
[13] = Km ATP, read-out: IC50 L858R/C797S (nM) Km ATP
[14] = Km ATP, read-out: IC50 L858R/T790M/C797S (nM) Km ATP

EGFR wildtype (WT), sequence (P00533 25-1210): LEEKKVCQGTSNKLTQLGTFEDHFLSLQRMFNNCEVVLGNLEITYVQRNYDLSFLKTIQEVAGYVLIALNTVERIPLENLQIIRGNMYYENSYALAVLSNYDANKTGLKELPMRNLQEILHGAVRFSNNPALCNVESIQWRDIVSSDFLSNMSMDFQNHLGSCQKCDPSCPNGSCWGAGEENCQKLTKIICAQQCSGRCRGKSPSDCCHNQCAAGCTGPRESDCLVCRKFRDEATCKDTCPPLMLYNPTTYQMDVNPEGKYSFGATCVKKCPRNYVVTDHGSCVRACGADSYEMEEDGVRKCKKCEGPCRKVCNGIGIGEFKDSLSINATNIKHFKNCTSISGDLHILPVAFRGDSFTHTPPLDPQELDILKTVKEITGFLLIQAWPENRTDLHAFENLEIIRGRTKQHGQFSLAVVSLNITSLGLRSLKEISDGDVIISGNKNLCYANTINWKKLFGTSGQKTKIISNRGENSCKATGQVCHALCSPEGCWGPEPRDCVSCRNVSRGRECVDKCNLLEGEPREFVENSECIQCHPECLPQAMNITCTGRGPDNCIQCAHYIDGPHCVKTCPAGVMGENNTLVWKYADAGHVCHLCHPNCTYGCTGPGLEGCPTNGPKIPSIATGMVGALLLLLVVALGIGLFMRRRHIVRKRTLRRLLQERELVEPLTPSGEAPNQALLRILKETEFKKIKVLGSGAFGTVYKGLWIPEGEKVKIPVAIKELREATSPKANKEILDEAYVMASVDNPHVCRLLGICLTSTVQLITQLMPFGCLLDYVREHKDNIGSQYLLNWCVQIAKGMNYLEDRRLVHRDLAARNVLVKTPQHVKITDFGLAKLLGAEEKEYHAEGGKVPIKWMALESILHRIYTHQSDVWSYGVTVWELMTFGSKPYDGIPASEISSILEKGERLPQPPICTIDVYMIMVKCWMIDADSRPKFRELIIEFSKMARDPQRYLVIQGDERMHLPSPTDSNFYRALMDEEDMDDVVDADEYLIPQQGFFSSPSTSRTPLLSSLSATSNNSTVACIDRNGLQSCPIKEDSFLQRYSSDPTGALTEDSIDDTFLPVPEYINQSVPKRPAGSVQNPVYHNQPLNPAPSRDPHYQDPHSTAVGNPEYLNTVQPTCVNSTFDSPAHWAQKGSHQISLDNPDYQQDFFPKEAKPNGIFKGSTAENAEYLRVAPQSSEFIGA

| SMILES | IC50 (EGFR wildtype (WT); IC50 WT (nM), 100 μM ATP) [nM] | IC50 (EGFR wildtype (WT); [1]) [nM] | IC50 (EGFR Del19/C797S; [2]) [nM] | IC50 (EGFR Del19/C797S; [3]) [nM] | IC50 (EGFR Del19/T790M/C797S; [4]) [nM] | IC50 (EGFR Del19/T790M/C797S; [5]) [nM] | IC50 (EGFR L858R/C797S; [6]) [nM] | IC50 (EGFR L858R/C797S; [7]) [nM] | IC50 (EGFR L858R/T790M/C797S; [8]) [nM] | IC50 (EGFR L858R/T790M/C797S; [9]) [nM] | IC50 (EGFR wildtype (WT); [10]) [nM] | IC50 (EGFR Del19/C797S; [11]) [nM] | IC50 (EGFR Del19/T790M/C797S; [12]) [nM] | IC50 (EGFR L858R/C797S; [13]) [nM] | IC50 (EGFR L858R/T790M/C797S; [14]) [nM] |
| --- | --- | --- | --- | --- | --- | --- | --- | --- | --- | --- | --- | --- | --- | --- | --- |
| O=S(=O)(C1CC1)n1cc(-c2nccc(Nc3cc(N4CCC5(CCCO5)CC4)c(C#Cc4ncc(CN5CCOCC5)cn4)cn3)n2)cn1 [Example 366, 2-(1-(Cyclopropylsulfonyl)-1H-pyrazol-4-yl)-N-(5-((5-(morpholinomethyl)pyrimidin-2-yl)ethynyl)-4-(1-oxa-8-azaspiro[4.5]decan-8-yl)pyridin-2-yl)pyrimidin-4-amine] | > 10000 | 7.2 | 4.4 | 2.5 | 0.5 | 0.3 | 16.7 | 2.9 | 1.1 | 0.1 | – | – | – | – | – |
| Cn1cc(C#Cc2cnc(Nc3ccnc(-c4cnn(S(=O)(=O)C5CC5)c4)n3)cc2N2CC(C(C)(C)O)C2)cn1 [Example 35, 2-(1-(2-((2-(1-(Cyclopropylsulfonyl)-1H-pyrazol-4-yl)pyrimidin-4-yl)amino)-5-((1-methyl-1H-pyrazol-4-yl)ethynyl)pyridin-4-yl)azetidin-3-yl)propan-2-ol] | > 10000 | – | 27.3 | – | 1.9 | – | 53 | – | 2.4 | – | 99.6 | 28 | 0.9 | 34.2 | 2.4 |
| O=S(=O)(C1CC1)n1cc(-c2nccc(Nc3cc(NC[C@H]4CC[C@H](CO)CC4)c(C#Cc4cnn(CCF)c4)cn3)n2)cn1 [Example 381, ((1 r,4r)-4-(((2-((2-(1-(Cyclopropylsulfonyl)-1H-pyrazol-4-yl)pyrimidin-4-yl)amino)-5-((1-(2-fluoroethyl)-1H-pyrazol-4-yl)ethynyl)pyridin-4-yl)amino)methyl)cyclohexyl)methanol] | > 10000 | 226 | 75.5 | 33.3 | 3.1 | 2.9 | 1290 | 37.9 | 7.9 | 3.4 | – | – | – | – | – |
| CN1CCC(C#Cc2cnc(Nc3ccnc(-c4cnn(S(=O)(=O)C5CC5)c4)n3)cc2N2CCC3(CCO3)CC2)C1 (stereo not drawn) [Example 373, 2-(1-(Cyclopropylsulfonyl)-1H-pyrazol-4-yl)-N-(5-((1-methylpyrrolidin-3-yl)ethynyl)-4-(1-oxa-7-azaspiro[3.5]nonan-7-yl)pyridin-2-yl)pyrimidin-4-amine] | 9540 | 10.8 | 1.8 | 1.6 | 0.2 | 0.2 | 41.6 | 2.5 | 0.4 | 0.1 | – | – | – | – | – |
| O=S(=O)(C1CC1)n1cc(-c2nccc(Nc3cc(N4CC[C@@H](O)C4)c(C#Cc4cnn(CCF)c4)cn3)n2)cn1 [Example 32, (R)-1-(2-((2-(1-(Cyclopropylsulfonyl)-1H-pyrazol-4-yl)pyrimidin-4-yl)amino)-5-((1-(2-fluoroethyl)-1H-pyrazol-4-yl)ethynyl)pyridin-4-yl)pyrrolidin-3-ol] | > 10000 | – | 11.8 | – | 1.1 | – | 96.9 | – | 4.8 | – | 29.4 | – | 1.5 | 12 | – |
| CN1CCC2(CC1)CCN(c1cc(Nc3ccnc(-c4cnn(S(=O)(=O)C5CC5)c4)n3)ncc1C#Cc1cnn(CC3CC3)c1)CC2 [Example 320, N-(5-((1-(Cyclopropylmethyl)-1H-pyrazol-4-yl)ethynyl)-4-(9-methyl-3,9-diazaspiro[5.5]undecan-3-yl)pyridin-2-yl)-2-(1-(cyclopropylsulfonyl)-1H-pyrazol-4-yl)pyrimidin-4-amine] | 5670 | – | 10.5 | – | 1 | – | 44 | – | 0.8 | – | – | – | – | – | – |
| Cn1cc(C#Cc2cnc(Nc3ccnc(-c4cnn(S(=O)(=O)C5CC5)c4)n3)cc2N2CCC(NS(C)(=O)=O)CC2)cn1 [Example 63, N-(1-(2-((2-(1-(Cyclopropylsulfonyl)-1H-pyrazol-4-yl)pyrimidin-4-yl)amino)-5-((1-methyl-1H-pyrazol-4-yl)ethynyl)pyridin-4-yl)piperidin-4-yl)methanesulfonamide] | > 10000 | – | 23.1 | – | 1.2 | – | 83.4 | – | 2.4 | – | – | – | – | – | – |
| Cn1cc(C#Cc2cnc(Nc3ccnc(-c4cnn(S(=O)(=O)C5CC5)c4)n3)cc2N2CCCC(CO)C2)cn1 (stereo not drawn) [Example 9, (1-(2-((2-(1-(Cyclopropylsulfonyl)-1H-pyrazol-4-yl)pyrimidin-4-yl)amino)-5-((1-methyl-1H-pyrazol-4-yl)ethynyl)pyridin-4-yl)piperidin-3-yl)methanol] | > 10000 | – | 3.8 | – | 1.9 | – | 27.5 | – | 1.1 | – | 52.8 | 2.8 | 0.7 | 2.2 | 0.4 |
| O=S(=O)(C1CC1)n1cc(-c2nccc(Nc3cc(N4CCCC(O)C4)c(C#Cc4cnn(CC(F)(F)F)c4)cn3)n2)cn1 (stereo not drawn) [Example 343, 1-(2-((2-(1-(Cyclopropylsulfonyl)-1H-pyrazol-4-yl)pyrimidin-4-yl)amino)-5-((1-(2,2,2-trifluoroethyl)-1H-pyrazol-4-yl)ethynyl)pyridin-4-yl)piperidin-3-ol] | > 10000 | 55.5 | 19.2 | 11.9 | 1.9 | 2.6 | 68.1 | 19.8 | 3.1 | 0.7 | – | – | – | – | – |
| O=S(=O)(C1CC1)n1cc(-c2nccc(Nc3cc(N4CCC(O)CC4)c(C#Cc4ccc(N5CCOCC5)nc4)cn3)n2)cn1 [Example 215, 1-(2-((2-(1-(Cyclopropylsulfonyl)-1H-pyrazol-4-yl)pyrimidin-4-yl)amino)-5-((6-morpholinopyridin-3-yl)ethynyl)pyridin-4-yl)piperidin-4-ol] | > 10000 | – | 46.9 | – | 2.9 | – | 213 | – | 11.4 | – | – | – | – | – | – |
| CN(C)CC1(C)CCN(c2cc(Nc3ccnc(-c4cnn(S(=O)(=O)C5CC5)c4)n3)ncc2C#CC2CCO[C@H]2C(F)(F)F)CC1 (stereo partly drawn) [Example 418, 2-(1-(Cyclopropylsulfonyl)-1H-pyrazol-4-yl)-N-(4-(4-((dimethylamino)methyl)-4-methylpiperidin-1-yl)-5-(((2R)-2-(trifluoromethyl)tetrahydrofuran-3-yl)ethynyl)pyridin-2-yl)pyrimidin-4-amine] | > 10000 | – | 10.1 | – | 1.1 | – | 235 | – | 2.3 | – | – | – | – | – | – |
| CC1(O)CCN(c2cc(Nc3ccnc(-c4cnn(S(=O)(=O)C5CC5)c4)n3)ncc2C#CC2CCN(C(=O)C(F)(F)F)C2)CC1 (stereo not drawn) [Example 410, 1-(3-((6-((2-(1-(Cyclopropylsulfonyl)-1H-pyrazol-4-yl)pyrimidin-4-yl)amino)-4-(4-hydroxy-4-methylpiperidin-1-yl)pyridin-3-yl)ethynyl)pyrrolidin-1-yl)-2,2,2-trifluoroethan-1-one] | 7420 | – | 3.1 | – | 0.2 | – | 29.4 | – | 0.6 | – | – | – | – | – | – |
